Experimental data as given in patent US6465483B1, “Annelated dihydropyridines and the use thereof for preparing pharmaceutical preparations” (Boehringer Ingelheim GmbH, priority 1993, dated 2002).

Assays:
[1] = tested on: RBL-2H3-cells; test: Antigen (DNP-BSA)-induced activation of sensitised RBL-2H3-cells, fluorometric cytoplasmic calcium measurement; type: cell-based, rat; settings: 10 μM
Procedure: Individual RBL-2H3-cells (a tumour cell line related to the mast cells) adhering to glass slides are used.
The cultivation and attachment of the RBL-2H3-cells are carried out by the method described by HIDE and BEAVEN (1991). In order to sensitise the adhesive RBL-2H3-cells the cells are incubated for 2 hours at ambient temperature with a 1:2000 diluted commercial gammaglobulin E-solution against a dinitrophenol-bovine serum albumin complex (DNP-BSA-antigen). The cells are then washed. By the addition of 0.1 ml of DNP-BSA-solution (10 μg/ml) there is a massive immunological cell activation which is mediated by a cytoplasmic Ca^2+-overload. The fluorometric calcium measurement in the cytoplasm of individual adhering RBL-2H3-cells is carried out analogously to the method described by KUDO and OGURA (1986) for neuronal cells, which is also explained hereinbefore in this specification.
The comparison used in these investigations is (10 μM) chromoglycate which brings about an approximately 50% inhibition of the antigen-induced cell activation.

[2] = tested on: unselective cation channels (UCC); test: Inhibition of Ca2+ entry through unselective cation channels after Thapsigargin stimulation, fura-2-charged RBL-hm 1 cells; type: cell-based, rat; settings: Table 5, 0.1 μM Thapsigargin, test substance 10^−5 M
Procedure: For screening purposes, fura-2-charged adhesive RBL-hm 1 cells are stimulated with 0.1 μM Thapsigargin in a Ca^2+-free incubation medium. After 4 minutes, extracellular Ca^2+ is restored to a concentration of 1.5 mM and, using the fura-2-fluorescence, the excessive increase in the cytoplasmic Ca^2+-concentration caused by a massive transmembranal Ca^2+-entry through unselective cation channels is recorded.
The kinetics of the cytoplasmic Ca^2+-concentration is recorded continuously as a concentration/time curve after the cell activation stimulated by Thapsigargin (0.1 μM). The curves of two activated cell cultures are compared in the presence and absence of 10 μM test substance. The area under these curves (area under the curve=AUC) is integrated and recorded as a measurement of cell activation. The inhibitory potency of the UCC-blockers tested is determined using the following equation: [formula]
AUCinh area under the curve recorded in the presence of the stimulant plus 10 μM inhibitory test substance.
AUC control=area under the curve which is recorded only after the addition of the stimulant.
The uniform concentration of the test substances is 10^−5 mol or 10^−6 mol)

Structure (SMILES)	inhibition of the antigen-induced cell activation [1]	% H (10^−5 M), percentage inhibition of UCC after Thapsigargin stimulation [2] [%]
O=C(O)c1cc(=O)c2c(OCC(O)COc3cccc4oc(C(=O)O)cc(=O)c34)cccc2o1 [chromoglycate]	approximately 50%	–
COc1cc2c(cc1OC)C(C(C(=O)N(Cc1ccccc1)Cc1ccccc1)c1ccsc1)=NCC2 (racemic) [(R,S)-(3,4-Dihydro-6,7-dimethoxyisoquinolin-1-yl)-2-(3-thienyl)-N,N-dibenzyl-acetamide]	–	90.9
